Converted amounts (≈) assume the structure as drawn. “And” between values parts separate entries of the source, which are not always exact repeats. Identical values can stand only once.
Columns and labels:
[1] = molecular target: PR10-12; experiment: Isothermal titration calorimetry; assay type: binding, Papaver somniferum; details: ITC, PBS pH 7.4, 25 °C, single-site model
Method: (§1) ITC experiments were conducted using a Microcal VP instrument (Malvern Pananalytical, Malvern, UK). Recombinant MLP/PR10 protein preparation involving production in Escherichia coli followed by cobalt-affinity chromatography was optimized to yield relatively high purity in a single step as determined by SDS-PAGE and colloidal Coomassie blue silver staining. The less than 48 h decrease in atmospheric oxygen exposure generated high-quality proteins with reduced precipitate. […] Eluates were twice dialysed to equilibrium (i.e., 10–12 h at 4 °C) against a 1000-fold (2–4 L) volume of PBS, pH 7.4 (25 mM sodium phosphate, 50 mM NaCl) or CBS, pH 5.5, resulting in a theoretical million-fold dilution of undesired small molecules (e.g., <0.2 µM imidazole). Dialysis was carried out in boiled Spectra/Por 1 6–8 kDa MWCO 0.32 ml/cm (Spectrum Labs, USA) tubing thoroughly washed with either buffer before use. The second 1000-fold volume of dialysis buffer was filtered and degassed using a reusable bottle-top filtration apparatus (Nalgene, USA) with disposable […] cellulose filters (VWR, Canada) prior to storage at 4 °C. Ligands were dissolved in the filtered dialysis buffer at 21 °C for approximately one hour, and any insoluble material was removed by repeated centrifugation at 21,000 × g for 10 min. No change in pH occurred following substrate addition. Prior to ITC, which was initiated immediately following dialysis, the protein solutions were centrifuged at 17,000 × g and 4 °C for 30 min. Any precipitate was separated from the remaining soluble protein fraction which was quantified by absorption at A280nm and diluted with filtered dialysis buffer immediately before use.
(§2) Thermograms were recorded at 25 °C, with a reference power of 10 (dpu/sec) and monitoring of 30 injections of 9 µl BIA ligand solutions into a sample cell containing 1.4 ml of an MLP/PR10 protein solution, with 300 seconds between injections. Protein concentrations varied from 10 to 150 µM to achieve an optimal C value and curve shape valid for parameter calculation. […] To ensure that we report only the heat of reaction for each interaction, independent titrations of ligand into buffer, and buffer into protein solutions, were used to calculate and then subtract heats of dilution. After subtraction, binding isotherms were analyzed in MicroCal Origin 7 (MicroCal, USA) by fitting a single-site binding model using non-linear least squares regression analysis repeated until convergence. […] Each ITC experiment was repeated 2 to 4 times.

[2] = molecular target: T1, MLP15 (Papaver somniferum, UniProt P19825); experiment: ANS displacement assay; details: for IC50: IC50, MLP15; for IC50 / Log10IC50: 10 µM protein and 10 µM ANS, CBS pH 5.5; for Log10IC50 / Hill Slope: MLP15; for Hill Slope: ANS displacement dose-response fit
T1 sequence (P19825 1-159): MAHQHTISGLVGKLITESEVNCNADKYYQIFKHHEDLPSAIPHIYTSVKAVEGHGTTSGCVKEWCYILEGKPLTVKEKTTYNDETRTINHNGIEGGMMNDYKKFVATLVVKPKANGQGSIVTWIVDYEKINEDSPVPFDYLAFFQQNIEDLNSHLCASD
Method: (§5) 8-anilino-1-naphthalenesulfonic acid (ANS) fluorescence binding curves and the binding-induced reduction in ANS fluorescence resulting from competition with tested ligands across a range of concentration facilitated the measurement of IC50 and an estimate of Kd values using the binding models and procedures described previously[70]. […] ANS was dissolved in dimethylsufoxide at a concentration of 20 mM, stored at −20 °C until dilution and protected from exposure to light. […] 40 µl of the ANS solution and 40 µl of each MLP/PR10 protein solution were combined to 80 µl final reaction volumes, which were incubated at 21 °C for 10 min to allow equilibration of binding. Triplicate 18-µl aliquots were withdrawn from each 80 µl reaction, transferred to optically clear PCR tubes (Diamed, Canada) and ANS fluorescence was measured following an additional 3-min incubation at 30 °C using a Qiagen Rotor-gene Q 6-plex with excitation and emission filters of 365 ± 20 nm and 460 ± 20 nm, respectively. An identical reaction series whereby protein was omitted from the mixtures was measured under identical conditions and trace fluorescence was subtracted from each MLP/PR10 protein-containing sample. Each data set was scaled so that the maximum observed fluorescence corresponded to 100% and individual data points were plotted, and a rectangular hyperbolic ligand binding function was fit, using least-squares analysis (Prism 5 software, Graphpad, USA). Experiments were repeated at least twice with independently prepared protein.
(§6) Displacement of ANS is associated with reduced fluorescence. […] Briefly, 40 µl of 20 µM ANS and individual MLP/ PR10 protein solutions were combined in CBS buffer, pH 5.5, incubated at 21 °C for 5 min, mixed with 40 µl of separate 0 to 6 mM BIA solutions in CBS buffer, pH 5.5, and the 80 µl reactions were subsequently incubated for 10 min at 21 °C. Fluorescence was measured as described above, including subtraction of any fluorescence in a blank series whereby protein was omitted. […] Each experiment was repeated at least twice with independently prepared MLP/PR10 proteins and BIA ligand.

[3] = molecular target: T2, NISO (Papaver somniferum, UniProt P0DYP9); experiment: Isothermal titration calorimetry; assay type: binding; set-up: made in house; host or cells: E. coli ArcticExpress (DE3); details: ITC, PBS pH 7.4, 25 °C; for N / Kd: single-site model
Method: as §1, with “UK).” for “UK). Recombinant MLP/PR10 protein preparation involving production in Escherichia coli followed by cobalt-affinity chromatography was optimized to yield relatively high purity in a single step as determined by SDS-PAGE and colloidal Coomassie blue silver staining. The less than 48 h decrease in atmospheric oxygen exposure generated high-quality proteins with reduced precipitate.”, “No change in pH occurred following substrate addition.” left out
as §2, with “injections.” for “injections. Protein concentrations varied from 10 to 150 µM to achieve an optimal C value and curve shape valid for parameter calculation.”

[4] = molecular target: T3, THS2 (Papaver somniferum, UniProt A0A2U9GGW3); experiment: Isothermal titration calorimetry; assay type: binding; set-up: made in house; host or cells: E. coli ArcticExpress (DE3); details: ITC, PBS pH 7.4, 25 °C; for N / Kd: single-site model
Method: as §1, with “UK).” for “UK). Recombinant MLP/PR10 protein preparation involving production in Escherichia coli followed by cobalt-affinity chromatography was optimized to yield relatively high purity in a single step as determined by SDS-PAGE and colloidal Coomassie blue silver staining. The less than 48 h decrease in atmospheric oxygen exposure generated high-quality proteins with reduced precipitate.”, “No change in pH occurred following substrate addition.” left out
as §2, with “injections.” for “injections. Protein concentrations varied from 10 to 150 µM to achieve an optimal C value and curve shape valid for parameter calculation.”

[5] = molecular target: T4, PR10-10 (Papaver somniferum, UniProt A0A9Y2YA81); experiment: ANS displacement assay; assay type: binding; details: ANS displacement dose-response fit
T4 sequence (A0A9Y2YA81 1-158): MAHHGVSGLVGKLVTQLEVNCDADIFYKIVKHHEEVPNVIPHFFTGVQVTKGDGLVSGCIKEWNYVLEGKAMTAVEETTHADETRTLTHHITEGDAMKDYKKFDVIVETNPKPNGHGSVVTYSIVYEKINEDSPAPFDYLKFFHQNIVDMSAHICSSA
Source text: (§3) Eluates were store separately on ice.
(§4) Displacement of ANS is associated with reduced fluorescence.

[6] = molecular target: T2, NISO; experiment: ANS displacement assay; details: for IC50: IC50, NISO; for IC50 / Log10IC50: 10 µM protein and 10 µM ANS, CBS pH 5.5; for Log10IC50 / Hill Slope: NISO; for Hill Slope: ANS displacement dose-response fit
Method: as §5, §6

[7] = molecular target: PR10-12; experiment: ANS displacement assay; assay type: binding, Papaver somniferum; details: for IC50 / Log10IC50: 10 µM protein and 10 µM ANS, CBS pH 5.5; for Kd: from average IC50 and PR10-ANS Kd, competitive inhibition assumed, read-out: Estimated Kd
Source text: as §3, §4

[8] = molecular target: MLP2; experiment: ANS displacement assay; assay type: binding, Papaver somniferum; details: for IC50 / Log10IC50: 10 µM protein and 10 µM ANS, CBS pH 5.5; for Kd: from average IC50 and PR10-ANS Kd, competitive inhibition assumed, read-out: Estimated Kd
Source text: as §3, §4

[9] = molecular target: T3, THS2; experiment: ANS displacement assay
Method: as §5, §6

[10] = Ligand solubility threshold in ITC buffer; assay type: physicochemical; details: filtered dialysis buffer (CBS, 21 °C, aqueous buffer, thermodynamic from solid); pH 5.5, ITC buffer
Method: ITC experiments were conducted using a Microcal VP instrument (Malvern Pananalytical, Malvern, UK). Recombinant MLP/PR10 protein preparation involving production in Escherichia coli followed by cobalt-affinity chromatography was optimized to yield relatively high purity in a single step as determined by SDS-PAGE and colloidal Coomassie blue silver staining. The less than 48 h decrease in atmospheric oxygen exposure generated high-quality proteins with reduced precipitate. […] Eluates were twice dialysed to equilibrium (i.e., 10–12 h at 4 °C) against a 1000-fold (2–4 L) volume of PBS, pH 7.4 (25 mM sodium phosphate, 50 mM NaCl) or CBS, pH 5.5, resulting in a theoretical million-fold dilution of undesired small molecules (e.g., <0.2 µM imidazole). […] Any precipitate was separated from the remaining soluble protein fraction which was quantified by absorption at A280nm and diluted with filtered dialysis buffer immediately before use.
Thermograms were recorded at 25 °C, with a reference power of 10 (dpu/sec) and monitoring of 30 injections of 9 µl BIA ligand solutions into a sample cell containing 1.4 ml of an MLP/PR10 protein solution, with 300 seconds between injections. […] After subtraction, binding isotherms were analyzed in MicroCal Origin 7 (MicroCal, USA) by fitting a single-site binding model using non-linear least squares regression analysis repeated until convergence. […]

[11] = molecular target: T1, MLP15; experiment: Isothermal titration calorimetry; assay type: binding; set-up: made in house; host or cells: E. coli ArcticExpress (DE3); details: ITC thermogram, injections into buffer and MLP15
Method: ITC experiments were conducted using a Microcal VP instrument (Malvern Pananalytical, Malvern, UK). […] Dialysis was carried out in boiled Spectra/Por 1 6–8 kDa MWCO 0.32 ml/cm (Spectrum Labs, USA) tubing thoroughly washed with either buffer before use. The second 1000-fold volume of dialysis buffer was filtered and degassed using a reusable bottle-top filtration apparatus (Nalgene, USA) with disposable […] cellulose filters (VWR, Canada) prior to storage at 4 °C. Ligands were dissolved in the filtered dialysis buffer at 21 °C for approximately one hour, and any insoluble material was removed by repeated centrifugation at 21,000 × g for 10 min. […] Prior to ITC, which was initiated immediately following dialysis, the protein solutions were centrifuged at 17,000 × g and 4 °C for 30 min. Any precipitate was separated from the remaining soluble protein fraction which was quantified by absorption at A280nm and diluted with filtered dialysis buffer immediately before use.
as §2, with “injections.” for “injections. Protein concentrations varied from 10 to 150 µM to achieve an optimal C value and curve shape valid for parameter calculation.”

[12] = molecular target: PR10-4; experiment: ANS displacement assay; assay type: binding, Papaver somniferum; details: for IC50 / Log10IC50: 10 µM protein and 10 µM ANS, CBS pH 5.5; for Kd: from average IC50 and PR10-ANS Kd, competitive inhibition assumed, read-out: Estimated Kd
Source text: as §3, §4

[13] = molecular target: T4, PR10-10; experiment: Isothermal titration calorimetry; assay type: binding; details: ITC, CBS pH 5.5, printed in brackets beside *, read-out: Kd (estimate, low enthalpy system)
Method: as §1, with “UK).” for “UK). Recombinant MLP/PR10 protein preparation involving production in Escherichia coli followed by cobalt-affinity chromatography was optimized to yield relatively high purity in a single step as determined by SDS-PAGE and colloidal Coomassie blue silver staining. The less than 48 h decrease in atmospheric oxygen exposure generated high-quality proteins with reduced precipitate.”, “No change in pH occurred following substrate addition.” left out
as §2, with “injections.” for “injections. Protein concentrations varied from 10 to 150 µM to achieve an optimal C value and curve shape valid for parameter calculation.”

T2 sequence (P0DYP9 entry or part of it): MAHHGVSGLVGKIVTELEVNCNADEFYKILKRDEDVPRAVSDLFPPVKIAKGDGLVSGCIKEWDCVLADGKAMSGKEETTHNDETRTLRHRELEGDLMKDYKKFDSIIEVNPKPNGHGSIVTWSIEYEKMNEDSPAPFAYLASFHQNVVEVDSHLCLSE
T3 sequence (A0A2U9GGW3 whole entry): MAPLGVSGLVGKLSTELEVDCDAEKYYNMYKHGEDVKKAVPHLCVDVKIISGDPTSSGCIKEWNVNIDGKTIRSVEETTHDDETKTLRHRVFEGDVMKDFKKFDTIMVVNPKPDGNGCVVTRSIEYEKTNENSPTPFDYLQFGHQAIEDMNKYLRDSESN

Compound | Kd [1] [µM] | Kd [2] [µM] | IC50 [2] | Log10IC50 [2] | Hill Slope [2] | ΔH [3] [kcal/mol] | ΔS [3] [cal/mol/˚K] | N [3] | Kd [3] | ΔH [4] [kcal/mol] | Kd [6] [µM] | IC50 [6] | Log10IC50 [6] | Hill Slope [6] | IC50 [7] [µM] | Log10IC50 [7] | Kd [7] [µM] | IC50 [8] [µM] | Log10IC50 [8] | Kd [8] [µM] | other results
COc1ccc2c3c1O[C@H]1[C@@H](O)C=C[C@H]4[C@@H](C2)N(C)CC[C@@]341 [Codeine, codeine] | 140 ± 13.6 | 931 | 1050 µM | 3.02 ± 0.17 | -0.97 ± 0.13 | -3.556 ± 0.02607 | 13.9 | 1.07 ± 0.00547 | 2 µM and 2.22 µM | 1.868 ± 0.0686 | 24.2 | 28 µM and 28.2 µM | 1.45 ± 0.13 | -0.72 ± 0.13 | 1500 | 3.18 ± 0.36 | 1460 | 203 | 2.31 ± 0.14 | 151 | Kd ([1]; listed as codeine): 140 µM; ΔS [4]: 27.2 cal/mol/˚K; N [4]: 0.51 ± 0.0145; Kd [4]: 26 µM and 26.5 µM; Hill Slope [5]: ~ 0.13 ± 0.35
COc1ccc2c(c1OC)C(=O)O[C@@H]2[C@H]1c2c(cc3c(c2OC)OCO3)CCN1C [Noscapine, noscapine] |  | 37.8 | 43 µM and 42.6 µM | 1.63 ± 0.04 | -1.18 ± 0.10 |  |  |  |  |  | 56.7 | 66 µM and 66.1 µM | 1.82 ± 0.07 | -5.05 ± 6.55 | ~4.18 | ~ 0.62 ± 0.17 | ~4.07 | ~40.4 | ~ 1.61 ± 0.07 | ~29.9 | Kd [9]: ~9.66 µM; IC50 ([9]; IC50, THS2, 10 µM protein and 10 µM ANS, CBS pH 5.5): 14 µM and ~14.3 µM; Log10IC50 ([9]; THS2, 10 µM protein and 10 µM ANS, CBS pH 5.5): ~ 1.16 ± 0.48; Hill Slope ([9]; THS2, ANS displacement dose-response fit): ~ -1.13 ± 0.78; solubility [10]: 1100 µM (≈ 455 µg/mL); endothermic positive peaks during the initial injections [11]: > 0.2 µcal/s; exothermic heat-change plateau of the final injections [11]: -0.48 µcal/s; IC50 [12]: ~126 µM; Log10IC50 [12]: ~ 2.102 ± 0.59; Kd [12]: ~116 µM
COc1cc2c(cc1OC)[C@@H]1Cc3ccc(OC)c(OC)c3CN1CC2 [Tetrahydropalmatine] |  |  |  |  |  |  |  |  |  |  |  |  |  |  |  |  |  |  |  |  | Kd [13]: 180 ± 133 µM
COC1=CC=C2[C@H]3Cc4ccc(OC)c5c4[C@@]2(CCN3C)[C@H]1O5 [Thebaine, thebaine] | 21.6 ± 0.71 | 612 | 690 µM | 2.84 ± 0.23 | -1.05 ± 0.19 | -2.396 ± 0.1109 | 13.6 | 0.786 ± 0.0251 | 18 µM and 18.2 µM | 2.45 ± 0.09784 | 171 | 199 µM and 200 µM | 2.30 ± 0.14 | 0.92 ± 0.16 | 445 | 2.65 ± 0.21 | 432 | 394 | 2.60 ± 0.20 | 292 | Kd ([1]; listed as thebaine): 22 µM; ΔS [4]: 28.8 cal/mol/˚K; N [4]: 0.523 ± 0.0156; Kd [4]: 31 µM and 31.2 µM; IC50 [12]: 2570 µM; Log10IC50 [12]: 3.41 ± 1.42; Kd [12]: 2350 µM
